Assay results as given in patent US20160272617A1, “SUBSTITUTED PHENYLALANINE DERIVATIVES” (BAYER PHARMA AKTIENGESELLSCHAFT, priority 2013, published 2016).
Where a name gives a salt, the structure may show the parent alone.

Each compound was assayed against T1, human factor XIa (Homo sapiens, UniProt P03951) (assay: Measurement of FXIa inhibition (fluorogenic peptide substrate Boc-Glu(OBzl)-Ala-Arg-AMC)). Settings: factor XIa from Kordia, 15 min preincubation, 30 min at 22° C., fluorescence.
T1 construct: purchased Kordia
T1 sequence (P03951 388-625 limits assumed): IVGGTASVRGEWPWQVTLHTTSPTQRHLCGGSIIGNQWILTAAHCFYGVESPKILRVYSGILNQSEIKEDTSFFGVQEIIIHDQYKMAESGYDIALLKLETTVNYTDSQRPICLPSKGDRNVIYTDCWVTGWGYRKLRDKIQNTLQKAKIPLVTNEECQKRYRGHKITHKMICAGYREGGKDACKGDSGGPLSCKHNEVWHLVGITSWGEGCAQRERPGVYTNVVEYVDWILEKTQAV
T1 sequence (P03951 19-387 partner limits assumed): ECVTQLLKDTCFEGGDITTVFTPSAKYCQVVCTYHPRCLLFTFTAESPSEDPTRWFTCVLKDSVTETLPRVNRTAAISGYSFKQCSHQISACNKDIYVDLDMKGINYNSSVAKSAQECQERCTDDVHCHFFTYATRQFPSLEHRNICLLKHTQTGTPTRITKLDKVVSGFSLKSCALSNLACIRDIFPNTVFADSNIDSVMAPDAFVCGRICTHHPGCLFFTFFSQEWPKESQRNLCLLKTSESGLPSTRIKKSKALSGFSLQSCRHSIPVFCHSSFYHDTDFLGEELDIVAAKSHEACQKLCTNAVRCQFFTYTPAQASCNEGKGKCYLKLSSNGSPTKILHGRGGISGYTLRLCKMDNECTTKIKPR
Format: biochemical
Method: The factor XIa inhibition of the inventive substances is determined using a biochemical test system which utilizes the reaction of a peptidic factor XIa substrate to determine the enzymatic activity of human factor XIa. Here, factor XIa cleaves from the peptic factor XIa substrate the C-terminal aminomethylcoumarin (AMC), the fluorescence of which is measured. The determinations are carried out in microtitre plates.
Test substances are dissolved in dimethyl sulphoxide and serially diluted in dimethyl sulphoxide (3000 μM to 0.0078 μM; resulting final concentrations in the test: 50 μM to 0.00013 μM). In each case 1 μl of the diluted substance solutions is placed into the wells of white microtitre plates from Greiner (384 wells). Subsequently, the following are added successively: 20 μl of assay buffer (50 mmol/l Tris buffer pH 7.4; 100 mmol/l sodium chloride; 5 mmol/l calcium chloride; 0.1% bovine serum albumin) and 20 μl of factor XIa from Kordia (0.45 nM in assay buffer). After 15 min of incubation, the enzyme reaction is started by addition of 20 μl of the factor XIa substrate Boc-Glu(OBzl)-Ala-Arg-AMC dissolved in assay buffer (10 μM in assay buffer) from Bachem, the mixture is incubated at room temperature (22° C.) for 30 min and fluorescence is then measured (excitation: 360 nm, emission: 460 nm). The measured emissions of the test mixtures with test substance are compared to those of control mixtures without test substance (only dimethyl sulphoxide instead of test substance in dimethyl sulphoxide), and the IC50 values are calculated from the concentration/activity relationships.
In the case of `COc1cc(C(=O)NC2CCC(N(C)C)CC2)ccc1-c1ccc(C[C@H](NC(=O)[C@H]2CC[C@H](CN)CC2)C(=O)Nc2ccc(-c3nn[nH]n3)cc2)cc1` (stereo partly drawn) [Example 67, 4′-[(2S)-2-({[trans-4-(Aminomethyl)cyclohexyl]carbonyl}amino)-3-oxo-3-{[4-(2H-tetrazol-5-yl)phenyl]amino}propyl]-N-[4-(dimethylamino)cyclohexyl]-2-methoxybiphenyl-4-carboxamide hydrochloride], the IC50 is reported as 4.6 nM.
With `Cc1cc(C(=O)NC2CCCNC2=O)ccc1-c1ccc(C[C@H](NC(=O)[C@H]2CC[C@H](CN)CC2)C(=O)Nc2ccc(-c3nc(C(F)F)n[nH]3)cc2)cc1` (stereo partly drawn) [Example 74, 4′-[(2S)-2-({[trans-4-(Aminomethyl)cyclohexyl]carbonyl}amino)-3-({4-[3-(difluoromethyl)-1H-1,2,4-triazol-5-yl]phenyl}amino)-3-oxopropyl]-2-methyl-N-(2-oxopiperidin-3-yl)biphenyl-4-carboxamide hydrochloride] the IC50 was 1.3 nM.
`Cc1cc(C(=O)NC2CCC(N(C)C)CC2)ccc1-c1ccc(C[C@H](NC(=O)[C@H]2CC[C@H](CN)CC2)C(=O)Nc2ccc(-c3nn[nH]n3)cc2)cc1` (stereo partly drawn) [Example 70, 4′-[(2S)-2-({[trans-4-(Aminomethyl)cyclohexyl]carbonyl}amino)-3-oxo-3-{[4-(2H-tetrazol-5-yl)phenyl]amino}propyl]-N-[4-(dimethylamino)cyclohexyl]-2-methylbiphenyl-4-carboxamide hydrochloride] gave an IC50 of 1.6 nM.
`Cc1cc(C(=O)NC(CN(C)C)CN(C)C)ccc1-c1ccc(C[C@H](NC(=O)[C@H]2CC[C@H](CN)CC2)C(=O)Nc2ccc(-c3nn[nH]n3)cc2)cc1` [Example 66, 4′-[(2S)-2-({[trans-4-(Aminomethyl)cyclohexyl]carbonyl}amino)-3-oxo-3-{[4-(2H-tetrazol-5-yl)phenyl]amino}propyl]-N-[1,3-bis(dimethylamino)propan-2-yl]-2-methylbiphenyl-4-carboxamide hydrochloride] showed an IC50 of 29 nM.
`Cc1cc(C(=O)N[C@@H]2CCCCNC2=O)ccc1-c1ccc(C[C@H](NC(=O)[C@H]2CC[C@H](CN)CC2)C(=O)Nc2ccc(-c3nn[nH]n3)cc2)cc1` [Example 64, 4′-[(2S)-2-({[trans-4-(Aminomethyl)cyclohexyl]carbonyl}amino)-3-oxo-3-{[4-(2H-tetrazol-5-yl)phenyl]amino}propyl]-2-methyl-N-[(3R)-2-oxoazepan-3-yl]biphenyl-4-carboxamide hydrochloride] showed an IC50 of 1.6 nM.
Compound `Cc1cc(C(=O)N[C@H]2CC[C@H](O)CC2)ccc1-c1ccc(C[C@H](NC(=O)[C@H]2CC[C@H](CN)CC2)C(=O)Nc2ccc(-c3nnc(C(F)(F)C(F)(F)C(=O)O)[nH]3)cc2)cc1` (single isomer, unassigned; enantiomer 1) [Example 168] has an IC50 of 0.5 nM.
Compound `Cc1cc(C(=O)NC2CCNCC2)ccc1-c1ccc(C[C@H](NC(=O)[C@H]2CC[C@H](CN)CC2)C(=O)Nc2ccc(-c3nnc(CC(C)C)[nH]3)cc2)cc1` [Example 58, 4′-[(2S)-2-({[trans-4-(Aminomethyl)cyclohexyl]carbonyl}amino)-3-{[4-(3-isobutyl-4H-1,2,4-triazol-5-yl)phenyl]amino}-3-oxopropyl]-2-methyl-N-(piperidin-4-yl)biphenyl-4-carboxamide hydrochloride] has an IC50 of 41 nM.
`Cc1cc(C(=O)NC2CCC(N(C)C)CC2)ccc1-c1ccc(C[C@H](NC(=O)[C@H]2CC[C@H](CN)CC2)C(=O)Nc2ccc3c(=O)[nH][nH]c3c2)cc1` (stereo partly drawn) [Example 68, 4′-{(2S)-2-({[trans-4-(Aminomethyl)cyclohexyl]carbonyl}amino)-3-oxo-3-[(3-oxo-2,3-dihydro-1H-indazol-6-yl)amino]propyl}-N-[4-(dimethylamino)cyclohexyl]-2-methylbiphenyl-4-carboxamide hydrochloride] gave an IC50 of 8.3 nM.
`COc1cc(C(=O)N[C@@H]2CCNC2)ccc1-c1ccc(C[C@H](NC(=O)[C@H]2CC[C@H](CN)CC2)C(=O)Nc2ccc(-c3nn[nH]n3)cc2)cc1` [Example 71, 4′-[(2S)-2-({[trans-4-(Aminomethyl)cyclohexyl]carbonyl}amino)-3-oxo-3-{[4-(2H-tetrazol-5-yl)phenyl]amino}propyl]-2-methoxy-N-[(3R)-pyrrolidin-3-yl]biphenyl-4-carboxamide hydrochloride] was tested, and the IC50 was 7.4 nM.
For `Cc1cc(C(=O)N2CCS(=O)(=O)CC2)ccc1-c1ccc(C[C@H](NC(=O)[C@H]2CC[C@H](CN)CC2)C(=O)Nc2ccc(-c3nn[nH]n3)cc2)cc1` [Example 69, trans-4-(Aminomethyl)-N-[(2S)-3-{4′-[(1,1-dioxidothiomorpholin-4-yl)carbonyl]-2′-methyl-biphenyl-4-yl}-1-oxo-1-{[4-(2H-tetrazol-5-yl)phenyl]amino}propan-2-yl]cyclohexanecarboxamide hydrochloride], the IC50 was 2.4 nM.
Work on `Cc1cc(C(=O)N[C@H]2CC[C@H](O)CC2)ccc1-c1ccc(C[C@@H](NC(=O)[C@H]2CC[C@H](CN)CC2)C(=O)Nc2ccc(-c3nnc(C(F)(F)C(F)(F)C(=O)O)[nH]3)cc2)cc1` (single isomer, unassigned; enantiomer 2) [Example 105] yielded an IC50 of 65 nM.
`Cc1cc(C(=O)NC2CCNCC2)ccc1-c1ccc(C[C@H](NC(=O)[C@H]2CC[C@H](CN)CC2)C(=O)Nc2ccc(-c3nn[nH]n3)cc2)cc1` [Example 1, 4′-[(2S)-2-({[trans-4-(Aminomethyl)cyclohexyl]carbonyl}amino)-3-oxo-3-{[4-(2H-tetrazol-5-yl)phenyl]amino}propyl]-2-methyl-N-(piperidin-4-yl)biphenyl-4-carboxamide hydrochloride] gave an IC50 of 2 nM.
`Cc1cc(C(=O)N[C@H]2CCCN(C)C2)ccc1-c1ccc(C[C@H](NC(=O)[C@H]2CC[C@H](CN)CC2)C(=O)Nc2ccc(-c3nn[nH]n3)cc2)cc1` [Example 73, 4′-[(2S)-2-({[trans-4-(Aminomethyl)cyclohexyl]carbonyl}amino)-3-oxo-3-{[4-(2H-tetrazol-5-yl)phenyl]amino}propyl]-2-methyl-N-[(3S)-1-methylpiperidin-3-yl]biphenyl-4-carboxamide hydrochloride] gave an IC50 of 3.4 nM.
`Cc1cc(C(=O)N[C@@H]2CCNC2)ccc1-c1ccc(C[C@H](NC(=O)[C@H]2CC[C@H](CN)CC2)C(=O)Nc2ccc(-c3nc(C(F)(F)C(F)(F)F)n[nH]3)cc2)cc1` [Example 75, 4′-[(2S)-2-({[trans-4-(Aminomethyl)cyclohexyl]carbonyl}amino)-3-oxo-3-({4-[3-(pentafluoroethyl)-1H-1,2,4-triazol-5-yl]phenyl}amino)propyl]-2-methyl-N-[(3R)-pyrrolidin-3-yl]biphenyl-4-carboxamide hydrochloride] showed an IC50 of 2.5 nM.
Work on `CNC(=O)c1ccc(-c2ccc(C[C@H](NC(=O)[C@H]3CC[C@H](CN)CC3)C(=O)Nc3ccc(-c4nn[nH]n4)cc3)cc2)c(C)c1` [Example 19, 4′-[(2S)-2-({[trans-4-(Aminomethyl)cyclohexyl]carbonyl}amino)-3-oxo-3-{[4-(2H-tetrazol-5-yl)phenyl]amino}propyl]-N,2-dimethylbiphenyl-4-carboxamide] yielded an IC50 of 2.9 nM.
With `Cc1cc(C(=O)NC2CCC(O)C2)ccc1-c1ccc(CC(NC(=O)C2CCC(CN)CC2)C(=O)Nc2ccc(-c3nnn[nH]3)c(F)c2)cc1` [Example 92, 4′-[(2S)-2-({[trans-4-(Aminomethyl)cyclohexyl]carbonyl}amino)-3-{[3-fluoro-4-(2H-tetrazol-5-yl)phenyl]amino}-3-oxopropyl]-N-(3-hydroxycyclopentyl)-2-methylbiphenyl-4-carboxamide hydrochloride] the IC50 was 1.8 nM.

Each compound was assayed on human and animal plasma (assay: Determination of anticoagulatory activity: activated partial thromboplastin time (aPTT) in plasma). Settings: concentration of test substance which brings about a 1.5-fold extension of the aPTT; plasma species not given.
Method: The anticoagulatory activity of the test substances is determined in vitro in human and animal plasma (for example mouse, rat, rabbit, pig and dog plasma). To this end, blood is drawn off in a mixing ratio of sodium citrate/blood of 1:9 using a 0.11 molar sodium citrate solution as receiver. Immediately after the blood has been drawn off, it is mixed thoroughly and centrifuged at about 4000 g for 15 minutes. The supernatant is pipetted off.
The activated partial thromboolastin time (aPTT) is determined in the presence of varying concentrations of test substance or the corresponding solvent using a commercial test kit (C. K. Prest from Diagnostica Stago). The test compounds are incubated with the plasma and the PTT reagent (cephalin, kaolin) at 37° C. for 3 minutes. Coagulation is then started by addition of a 25 mM aqueous calcium chloride solution, and the time when coagulation occurs is determined. The concentration of test substance which brings about a 1.5-fold extension of the aPTT is determined.
For `Cc1cc(C(=O)N[C@H]2CC[C@H](O)CC2)ccc1-c1ccc(CC(NC(=O)[C@H]2CC[C@H](CN)CC2)C(=O)Nc2ccc(-c3nnc(C(F)(F)C(F)(F)C(=O)O)[nH]3)cc2)cc1` (mixture of isomers) [Example 131, 3-[5-(4-{[2-({[trans-4-(Aminomethyl)cyclohexyl]carbonyl}amino)-3-{4′-[(trans-4-hydroxycyclohexyl)carbamoyl]-2′-methylbiphenyl-4-yl}propanoyl]amino}phenyl)-4H-1,2,4-triazol-3-yl]-2,2,3,3-tetrafluoropropanoic acid (enantiomer mixture)], the “aPTT” value was 0.2 µmol/L.
